Data from US7148193B2, “Compounds that bind to growth hormone receptor” (Antyra, Inc., priority 1997, dated 2006).
Where a SMILES comes first, the peptide text is derived from it. Bridges are numbered along the chain shown (N, C = ends).

How the values were obtained:
rGHBP [1] = target: T1, rGHBP (Rattus norvegicus, UniProt P16310); test: BIAcore affinity measurements of bPeptide binding to rGHBP; conditions: BIAcore appKD and phage competition
T1 construct: 1–48 of GHBP; The 3′ oligo used for this reaction encoded the mutation L43R (CTG→AGA); The second PCR reaction amplified the DNA encoding amino acids 38–260; 6xHis; made in house
T1 sequence (P16310 19-278 isoform P16310-2): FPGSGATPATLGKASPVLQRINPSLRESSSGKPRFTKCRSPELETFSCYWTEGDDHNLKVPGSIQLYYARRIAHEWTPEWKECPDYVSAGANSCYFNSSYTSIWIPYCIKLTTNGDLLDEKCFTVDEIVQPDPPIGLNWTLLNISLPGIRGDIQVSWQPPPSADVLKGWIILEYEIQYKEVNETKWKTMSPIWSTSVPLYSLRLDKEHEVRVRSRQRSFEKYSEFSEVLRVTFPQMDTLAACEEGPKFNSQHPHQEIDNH
Procedure: GHBP was immobilized onto one flow-cell of a CM-5 sensor chip (Biosensor) using amine coupling chemistry and the manufacturer's recommended protocol. An unrelated IgG was immobilized in the same manner to another flow cell of the same chip as a control surface. Increasing concentrations of synthetic peptide were injected over both surfaces, and the binding responses were allowed to come to equilibrium. After subtraction of background binding from the control surface, the results were used to derive an equilibrium dissociation constant using Scatchard analysis.
The rat GHBP (100 μg/ml) was immobilized onto a CM-5 sensor chip using amino coupling chemistry and the manufacturer's recommended protocol. The final surface density was 4000 RU. A monoclonal antibody was immobilized onto another flow cell as a control surface. Peptides (50 μg/ml) were injected at a flow rate of 5 μl/min. Background binding to the control surface was subtracted prior to further analysis.

rGHBP [2] = target: T1, rGHBP; test: Time-resolved fluorometric detection (TRFD) of specific bLigand binding to rGHBP and its competition; conditions: TRFD
Procedure: For this invention, saEu forms a ternary complex with bP and rGHBP (i.e., the rGHBP:bP:saEu complex). As described herein, the TRFD assay is performed using biotinylated GH (bGH) as bLigand. Biotinylated H5-mutant peptides bP#447 (SEQ ID NO:11) and bP#418 (SEQ ID NO:12) are also used as bLigand (see below). The TRFD assay described herein faithfully reports the competition of ligand binding to the active site of rGHR. To perform the TRFD assays, soluble rGHBP is attached to the surface of microtiter wells, then incubated with bP. Unbound bP is than washed away and (sa)Eu is added to complex with receptor bound bP. The rGHBP:bP bound (sa)Eu is then converted into its highly fluorescent state and detected by TRFD.
Wells were coated with rGHBP(100 ng/well) overnight as described. ED50 and IC50 were calculated from analysis of specific bLigand binding to rGHBP. Competitors were added 1 hr prior to addition of bLigand as described.
rGHBP (50–200 μg/ml in 50 mM NaHCO3) was coated onto low-fluorescence MaxiSorp (Nunc) plates (100 μl/well) overnight at 4° C. The plates were blocked with PBS containing 2% non-fat milk and 0.05% BSA for 2 hr at room temperature, followed by three PBS washes. For competitions, serial dilutions of unlabelled growth hormone (0.1 nM-100 nM) or MAb 2C3 (0.67–67 nM) were added to the plates (100 μl/well) and incubated at room temperature for 1–2 hr. Biotinylated peptide or biotinylated GH (10× concentrations) were incubated in blocking buffer for 30 min to decrease non-specific binding. Ten microliters of the 10× concentrated material was added to the plates and incubated at room temperature for 1 hr to overnight.
The plates were then washed five times with Tris-buffered saline (pH 7.5) containing 0.1% Tween-20 (TTBS). To each well, 100 μl of europium-labeled streptavidin in DELFIA assay buffer (100 mM Tris-HCl, pH 7.8; 150 mM NaCl; 0.5% BSA; 0.05% bovine Ig; 0.05% NaN3; 0.01% Tween-20) was added and incubated for 1.5 hr at room temperature. The plates were then washed five times with TTBS and tapped dry. Subsequently, 100 μl of DELFIA enhancement solution (100 mM acetone-potassium hydrogen phthalate, pH 3.2; 15 mM 2-naphtyltrifluoroacetate; […] tri(n-octyl)-phosphine oxide; 0.1% Triton X-100) was added to each well, and the plates were shaken for 10 min at room temperature. Fluorescence of each sample well was measured at 615 nm using a DELFIA 1234 fluorometer (EG&G Wallac). General procedure and references as described by Wallac are available in “Lanthanide labeling for time-resolved fluorometry”: Wallac publication 1244–1126-03.

Compound | affinity for rGHBP, ranking (rGHBP [1]) | binding better than H5WT or bP#445 (rGHBP [2])
CC(C)C[C@@H]1NC(=O)[C@H](Cc2c[nH]c3ccccc23)NC(=O)CNC(=O)[C@@H]2CCCN2C(=O)[C@H](Cc2c[nH]c3ccccc23)NC(=O)[C@H]([C@@H](C)O)NC(=O)[C@H](C(C)C)NC(=O)[C@H](CCC(N)=O)NC(=O)[C@H](Cc2c[nH]c3ccccc23)NC(=O)[C@H](CO)NC(=O)[C@H](CCC(N)=O)NC(=O)[C@@H](NC(=O)[C@H](CC(C)C)NC(=O)[C@H](CC(=O)O)NC(=O)[C@H](CCCCN)NC(=O)[C@H](Cc2ccc(O)cc2)NC(=O)[C@@H](N)CC(=O)O)CSSC[C@@H](C(=O)N[C@@H](C)C(=O)N[C@@H](CCCCN)C(=O)N[C@@H](CCCCN)C(=O)O)NC(=O)[C@H](Cc2c[nH]c3ccccc23)NC(=O)CNC(=O)[C@H](C)NC1=O [#418] (H-DYKDLCQSWQVTWPGWLAGWCAKK-OH; disulfide 6-21; N-terminus and C-terminus assumed) | highest affinity | 10 times
CC(C)C[C@@H]1NC(=O)[C@H](CCCNC(=N)N)NC(=O)[C@H](CCC(N)=O)NC(=O)[C@@H](NC(=O)[C@H](CC(C)C)NC(=O)[C@H](CC(=O)O)NC(=O)[C@H](CCCCN)NC(=O)[C@H](Cc2ccc(O)cc2)NC(=O)[C@@H](N)CC(=O)O)CSSC[C@@H](C(=O)N[C@@H](C)C(=O)N[C@@H](CCCCN)C(=O)N[C@@H](CCCCN)C(=O)O)NC(=O)[C@H](Cc2c[nH]c3ccccc23)NC(=O)CNC(=O)[C@H](CO)NC(=O)[C@H](CC(C)C)NC(=O)[C@H](Cc2c[nH]c3ccccc23)NC(=O)CNC(=O)[C@@H]2CCCN2C(=O)[C@H](Cc2c[nH]c3ccccc23)NC(=O)CNC(=O)[C@H](C(C)C)NC(=O)CNC1=O [#447] | highest affinity | 10 times
